Read-outs that look alike come from different tables or passages of the source.
What was measured:
[1] = Dynamic light scattering (DLS) of mRNA/peptoid formulations: particle size and polydispersity; assay type: physicochemical; conditions: Fluc mRNA/peptoid formulation; for Size PDI: size polydispersity index by DLS, 5:1 mass ratio; for Size (nm): volume average particle size/diameter by DLS, 5:1 mass ratio peptoid:cargo
Method: To prepare nanoparticle formulations, the amino lipidated peptoid is mixed by pipetting with nucleic acid at a mass ratio between approximately 1:1 (peptoid:cargo) and 20:1. Prior to formulation, amino lipidated peptoid and nucleic acid cargo were diluted in ethanol and acidic buffer (PBS adjusted to pH 5.5 with 0.1 M HCl) respectively to a volume ratio of 1:3 and to target a final cargo concentration of approximately 0.05 mg/mL to 0.2 mg/mL. The exemplary amino lipidated cationic peptoids described in Example 2 were combined with firefly luciferase (Fluc) mRNA to form nanoparticle compositions to be evaluated for therapeutic and/or prophylactic purposes in vitro or in vivo. The formulations were prepared according to the protocol of Example 3 and mixed by simple pipetting. The mRNA/peptoid formulation at a 5:1 mass ratio of peptoid:cargo were evaluated by dynamic light scattering (DLS) in order to determine the volume average particle size/diameter (nm) of the mRNA/peptoid complex and the size polydispersity index (PDI) within the formulation. The percentage of mRNA encapsulation for each formulation of the exemplary compounds were determined by fluorescence of the Qubit RNA HS (Invitrogen) dye before and after lysis of particles by Triton X-100.

[2] = mRNA encapsulation by fluorescence of Qubit RNA HS dye before and after lysis with Triton X-100; assay type: physicochemical; conditions: percentage of mRNA encapsulation; Fluc mRNA/peptoid formulation, 5:1 mass ratio
Summary of the method: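 Peptoid/Fluc mRNA nanoparticles were formed by pipette mixing at a 5:1 peptoid:mRNA mass ratio. Percent encapsulation came from Qubit RNA HS dye fluorescence before versus after particle lysis with Triton X-100.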

HeLa cells [3] = experiment: In vitro expression of firefly luciferase (Fluc) after treatment with Fluc mRNA/amino lipidated peptoid formulations, no PEG or 2% DMG-PEG2000; assay type: cell-based
Summary of the method: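 Peptoid/Fluc mRNA particles (5:1 w/w), without PEG or with DMG-PEG2000 pre-mixed into peptoid at 2% w/w, dosed at 100 ng mRNA/well on HeLa cells. Luciferase luminescence (RLU) read after 6 h and 24 h.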

HeLa cells [4] = experiment: In vitro Fluc expression with variable peptoid:mRNA mass ratio, 2% DMG-PEG2000; assay type: cell-based; conditions: 24 h; for Observed Luciferase Expression (RLU) for Given Formulation Mass Ratio 2:1: 2% (w/w) DMG-PEG2000, peptoid:mRNA 2:1; for Observed Luciferase Expression (RLU) for Given Formulation Mass Ratio 3.5:1: 2% (w/w) DMG-PEG2000, peptoid:mRNA 3.5:1; for Observed Luciferase Expression (RLU) for Given Formulation Mass Ratio 5:1: 2% (w/w) DMG-PEG2000, peptoid:mRNA 5:1; for Observed Luciferase Expression (RLU) for Given Formulation Mass Ratio 7.5:1: 2% (w/w) DMG-PEG2000, peptoid:mRNA 7.5:1
Summary of the method: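 Fluc mRNA particles formulated at 2:1, 3.5:1, 5:1 and 7.5:1 peptoid:mRNA (w/w), with DMG-PEG2000 at 2% (w/w) relative to amino lipidated peptoid. HeLa cells treated for 24 hours; Fluc expression read as bioluminescence (RLU).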

[5] = MTT viability assay after treatment with Fluc mRNA/amino lipidated peptoid formulations; assay type: cell-based; conditions: human, HeLa cells
Summary of the method: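 Formulations (peptoid:mRNA 5:1 mass ratio, 2% w/w DMG-PEG2000) were applied at 100 ng Fluc mRNA per well for 8 h, followed by 48 h of growth. Cells then received 1.5 mg/mL MTT for 2 h, and formazan signal was normalized to untreated cells.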

[6] = no PEG, peptoid:Fluc mRNA 5:1 w/w, 100 ng/well, 6 h of treatment
[7] = no PEG, peptoid:Fluc mRNA 5:1 w/w, 100 ng/well, 24 h of treatment
[8] = with 2% (w/w) DMG-PEG2000, peptoid:mRNA 5:1, 6 h after treatment
[9] = with 2% (w/w) DMG-PEG2000, peptoid:mRNA 5:1, 24 h after treatment

Row | Size PDI [1] | Size (nm) [1] | % Encapsulation [2] | Compound | Luciferase Expression (RLU) 6 h (HeLa cells [3]; [6]) | Luciferase Expression (RLU) 24 h (HeLa cells [3]; [7]) | Luciferase Expression (RLU) 6 h (HeLa cells [3]; [8]) | Luciferase Expression (RLU) 24 h (HeLa cells [3]; [9]) | Observed Luciferase Expression (RLU) for Given Formulation Mass Ratio 2:1 (HeLa cells [4]) | Observed Luciferase Expression (RLU) for Given Formulation Mass Ratio 3.5:1 (HeLa cells [4]) | Observed Luciferase Expression (RLU) for Given Formulation Mass Ratio 5:1 (HeLa cells [4]) | Observed Luciferase Expression (RLU) for Given Formulation Mass Ratio 7.5:1 (HeLa cells [4]) | viability at 8 h, 500 ng/well ([5]; Relative Viability (%) 2% PEG) | viability at 8 h, 500 ng/well ([5]; Relative Viability (%) No PEG) | viability at 8 h, 500 ng/well ([5]; MTT, 2% (w/w) DMG-PEG2000, 5:1 mass ratio, 100 ng/well mRNA for 8 h then 48 h growth, normalized to untreated cells, read-out: Relative Viability (%) 2% PEG) | viability at 8 h, 500 ng/well ([5]; MTT, formulation alone (no PEG), 5:1 mass ratio, 100 ng/well mRNA for 8 h then 48 h growth, normalized to untreated cells, read-out: Relative Viability (%) No PEG)
1 | 0.122 | 367.9 nm | 73.9% | CCCCCCCCCCN(CC(N)=O)C(=O)CN(CCCCCCCCCC)C(=O)CN(CCc1ccccc1)C(=O)CN(CCc1ccccc1)C(=O)CNCCN [Compound 9] | 1.52E+02 RLU | 8.57E+01 RLU | 1.38E+02 RLU | 3.33E+01 RLU | 2.28E+02 RLU | 3.67E+02 RLU | 9.91E+02 RLU | 1.82E+02 RLU | 107% | 99.3% |  | 
2 | 0.047 | 356.9 nm | 90.1% | CCCCCCCCN(CC(N)=O)C(=O)CN(CCCCCCCC)C(=O)CN(CCc1ccccc1)C(=O)CN(CCc1ccccc1)C(=O)CN(CCN)C(=O)CN(CCc1ccccc1)C(=O)CN(CCc1ccccc1)C(=O)CN(CCN)C(=O)CN(CCc1ccccc1)C(=O)CN(CCc1ccccc1)C(=O)CNCCN [Compound 1] | 1.22E+02 RLU | 4.00E+01 RLU | 2.09E+02 RLU | 8.67E+00 RLU | 6.82E+02 RLU | 3.12E+02 RLU | 2.31E+02 RLU | 3.35E+01 RLU | 88.1% | 97.4% |  | 
3 | 0.37 | 326.6 nm | 72.2% | CCCCCCCCCCN(CC(N)=O)C(=O)CN(CCCCCCCCCC)C(=O)CN(CCCCCCCCCC)C(=O)CN(CCCCCCCCCC)C(=O)CN(CCCCCCCCCC)C(=O)CN(CCc1ccccc1)C(=O)CN(CCc1ccccc1)C(=O)CN(CCN)C(=O)CN(CCc1ccccc1)C(=O)CN(CCc1ccccc1)C(=O)CNCCN [Compound 20] | 9.91E+03 RLU | 1.55E+04 RLU | 1.75E+04 RLU | 1.36E+04 RLU | 1.31E+03 RLU | 2.47E+04 RLU | 1.31E+04 RLU | 2.27E+04 RLU | 93% | 87.1% |  | 
4 | 0.538 | 748.2 nm | 65.4% | CCCCCCCCCCN(CC(N)=O)C(=O)CN(CCCCCCCCCC)C(=O)CN(CCCCCCCCCC)C(=O)CN(CCCCCCCCCC)C(=O)CN(CCCCCCCCCC)C(=O)CN(CCCCCCCCCC)C(=O)CN(CCc1ccccc1)C(=O)CN(CCc1ccccc1)C(=O)CN(CCN)C(=O)CN(CCc1ccccc1)C(=O)CN(CCc1ccccc1)C(=O)CN(CCN)C(=O)CN(CCc1ccccc1)C(=O)CN(CCc1ccccc1)C(=O)CNCCN [Compound 22] | 6.63E+01 RLU | 6.77E+01 RLU | 9.23E+01 RLU | 2.13E+01 RLU | 3.53E+01 RLU | 8.83E+01 RLU | 2.50E+02 RLU | 5.80E+02 RLU | 118% | 104% |  | 
5 | 0.348 | 448.6 nm | 92.4% | CCCCCCCCCCN(CC(N)=O)C(=O)CN(CCc1ccccc1)C(=O)CN(CCc1ccccc1)C(=O)CN(CCN)C(=O)CN(CCc1ccccc1)C(=O)CN(CCc1ccccc1)C(=O)CN(CCN)C(=O)CN(CCc1ccccc1)C(=O)CN(CCc1ccccc1)C(=O)CNCCN [Compound 6] | 4.30E+01 RLU | 3.60E+01 RLU | 1.38E+02 RLU | 2.13E+01 RLU | 8.18E+01 RLU | 8.18E+01 RLU | 6.97E+01 RLU | 4.56E+01 RLU |  |  | 88.9% | 88%
6 | 0.606 | 438.7 nm | 50.9% | CCCCCCCCCCN(CC(N)=O)C(=O)CN(CCCCCCCCCC)C(=O)CN(CCc1ccccc1)C(=O)CN(CCc1ccccc1)C(=O)CN(CCNC)C(=O)CN(CCc1ccccc1)C(=O)CN(CCc1ccccc1)C(=O)CN(CCNC)C(=O)CN(CCc1ccccc1)C(=O)CN(CCc1ccccc1)C(=O)CNCCNC [Compound 27] | 9.88E+02 RLU | 7.40E+02 RLU | 3.13E+02 RLU | 6.36E+02 RLU | 6.27E+03 RLU | 8.40E+02 RLU | 8.69E+02 RLU | 6.41E+02 RLU | 91.1% | 93.9% |  | 
7 | 0.455 | 282.8 nm | 8.4% | CCCCCCCCCCN(CC(N)=O)C(=O)CN(CCCCCCCCCC)C(=O)CN(CCc1ccccc1)C(=O)CN(CCc1ccccc1)C(=O)CN(CCCN)C(=O)CN(CCc1ccccc1)C(=O)CN(CCc1ccccc1)C(=O)CN(CCCN)C(=O)CN(CCc1ccccc1)C(=O)CN(CCc1ccccc1)C(=O)CNCCCN [Compound 30] | 2.79E+03 RLU | 1.29E+04 RLU | 1.79E+03 RLU | 1.52E+03 RLU | 4.27E+04 RLU | 3.43E+03 RLU | 3.46E+03 RLU | 1.47E+03 RLU | 88% | 86.5% |  | 
8 | 0.404 | 348.5 nm | 35.7% | CCCCCCCCCCN(CC(N)=O)C(=O)CN(CCCCCCCCCC)C(=O)CN(CCCCCCCCCC)C(=O)CN(CCCCCCCCCC)C(=O)CN(CCc1ccccc1)C(=O)CN(CCc1ccccc1)C(=O)CN(CC1CCNCC1)C(=O)CN(CCc1ccccc1)C(=O)CN(CCc1ccccc1)C(=O)CN(CC1CCNCC1)C(=O)CN(CCc1ccccc1)C(=O)CN(CCc1ccccc1)C(=O)CNCC1CCNCC1 [Compound 31] | 5.84E+02 RLU | 2.93E+03 RLU | 4.30E+02 RLU | 2.63E+02 RLU | 2.07E+02 RLU | 5.70E+02 RLU | 3.77E+03 RLU | 2.05E+03 RLU | 98.4% | 83.8% |  | 

— patent US20220323594A1, “LIPIDATED CATIONIC PEPTIDE-PEG COMPOSITIONS FOR NUCLEIC ACID DELIVERY” (NUTCRACKER THERAPEUTICS, INC., priority 2019, published 2022)
